{"source": "patent US20040043420A1", "about": "“Method of identifying conformation-sensitive binding peptides and uses thereof” (priority 2003, published 2004)", "key": {"androgen receptor [1]": {"target": "T1, androgen receptor (Homo sapiens, UniProt P10275)", "T1 sequence (P10275 1-920)": "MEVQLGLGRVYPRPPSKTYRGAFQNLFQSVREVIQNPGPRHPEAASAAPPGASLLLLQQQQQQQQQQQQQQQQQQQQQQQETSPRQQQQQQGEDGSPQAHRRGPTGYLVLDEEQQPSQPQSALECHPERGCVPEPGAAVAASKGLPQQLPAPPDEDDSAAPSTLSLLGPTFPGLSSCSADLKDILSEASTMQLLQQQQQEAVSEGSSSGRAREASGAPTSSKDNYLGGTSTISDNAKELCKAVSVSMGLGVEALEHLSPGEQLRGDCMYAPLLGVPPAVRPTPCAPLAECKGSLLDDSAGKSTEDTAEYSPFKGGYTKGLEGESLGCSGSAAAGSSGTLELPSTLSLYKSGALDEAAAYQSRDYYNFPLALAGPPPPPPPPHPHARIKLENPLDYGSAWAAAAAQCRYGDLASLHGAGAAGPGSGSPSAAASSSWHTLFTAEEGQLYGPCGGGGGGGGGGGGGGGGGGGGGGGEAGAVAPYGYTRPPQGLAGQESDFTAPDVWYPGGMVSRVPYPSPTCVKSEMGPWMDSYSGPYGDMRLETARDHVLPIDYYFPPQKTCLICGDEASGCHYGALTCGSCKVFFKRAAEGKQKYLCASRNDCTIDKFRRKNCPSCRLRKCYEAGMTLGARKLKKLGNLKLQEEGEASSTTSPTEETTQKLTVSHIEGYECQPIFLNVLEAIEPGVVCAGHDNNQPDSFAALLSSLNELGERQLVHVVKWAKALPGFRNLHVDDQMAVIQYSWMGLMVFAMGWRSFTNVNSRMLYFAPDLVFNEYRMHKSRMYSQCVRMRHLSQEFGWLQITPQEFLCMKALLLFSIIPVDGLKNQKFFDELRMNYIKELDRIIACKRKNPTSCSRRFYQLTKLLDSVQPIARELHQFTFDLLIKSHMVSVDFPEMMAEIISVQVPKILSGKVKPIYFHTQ", "test": "Yeast two-hybrid screening of unbiased X15 peptide library, ligand-induced β-galactosidase activity (FIG. 3, Table 503)", "assay_type": "cell-based", "set-up": "expressed in transfected cells; host or cells: Saccharomyces cerevisiae PJ69-4α", "text": "Our library contained predominantly 15 random amino acid residues/peptide in order to identify motifs that might interact with nuclear receptor domains. If ligand is provided to the cells, one can screen for peptides that interact with the ligand-bound receptor. […] Included at the ends of the oligonucleotide were the synthetic restriction endonuclease cleavage sites, EcoRI or Mfe I (5′ end) and Sal I (3′ end). Oligonucleotides were annealed, then cleaved with excess restriction endonuclease and purified on agarose gels. The purified set of oligonucleotides was subcloned as an in-frame carboxy-terminal fusion to a Gal4 DNA binding domain (plasmid vector pMA424 derivative). […] The transformation mix was divided and grown on plates of selective media containing ligand and 25 mM 3-aminotriazole at 30° C. until colonies appeared in 3-7 days. […] Dihydrotestosterone (DHT) and medroxyprogesterone (MPA) were added to the media at 100 nM to identify peptides that interact with the receptor in the presence of ligand. After colonies appeared they were picked and dispersed into individual wells of a 96-well plate containing rich media (YPD).\nTo determine ligand dependence, two microliter aliquots were removed from the cell suspension, and arrayed and spotted onto each of two rectangular agar plates, one with 100 nM ligand and one without ligand. Growth was monitored daily.\nA secondary test of ligand dependent activation was performed using the integrated GAL4-driven lacZ gene. Cell suspensions of the initial positive clones were diluted 20-fold into 20 microliters of rich media in a microplate and grown overnight at 30° C. in the presence and absence of ligand. Microplates were centrifuged for 5 minutes at 3000 rpm in a swinging table top centrifuge to pellet the yeast cells, and the overlying media was aspirated. […] An OD650 density determination was made to normalize the β-galactosidase activity. β-galactosidase activity was monitored following the addition of buffer containing chlorophenol red-1-galactopyranoside (CPRG) (Boehringer Mannheim) substrate at a final concentration of 0.5 mM. […] The maximum slope value of this measurement was normalized to cell density from the initial OD650 value, and the relative ligand dependence of β-galactosidase was determined by comparing the values plus and minus ligand.\nIn FIG. 3, all of these ligands were tested. The plasmids from true positives were extracted using standard yeast extraction protocols and re-transformed to verify the positive phenotype."}, "androgen receptor [2]": {"target": "T1, androgen receptor", "assay_type": "cell-based", "set-up": "expressed in transfected cells", "text": "We used a mammalian two-hybrid system to determine specificities of the AR-binding peptides previously identified, through screening of the aforementioned yeast library, as ligand-dependent in their binding activity. Ligand was provided to the cells so the interaction could be observed. The human hepatoma cell line, Huh-7, was used as the recipient of two-hybrid vectors, pM and pVP16 (Clontech) (FIGS. 6A and 6B), containing fusions with peptide and AR, respectively. According to Clontech literature, the Clontech vectors pM and VP16 generate fusions of protein X with the GAL4 DNA-BD and fusions of protein Y with the VP16AD, in the Mammalian MM Two-Hybrid Assay Kit (#K1602-1). (Note: pM and VP16 contain unique cloning sites in the same order and reading frame as the DNA-BD and AD, respectively, vectors in the yeast […] Two-Hybrid Systems.) A third vector, pG5CAT, provides a CAT reporter gene under the control of a GAL4-responsive element and minimal promoter of the adenovirus E1b. The three vectors are cotransfected into any suitable mammalian host cell line by standard methods. The interaction between proteins X and Y is then assayed by measuring CAT gene expression by any standard method. In the absence-of activation (i.e., no protein-protein interaction), the minimal E1b promoter will not express significant levels of CAT.\nBriefly, cells are seeded in a 24-well culture plate to a density of 50-80% confluence in phenol red-free media containing charcoal-dextran stripped fetal bovine serum (10%). Following incubation overnight, cells are transfected with plasmids pM-peptide, pVP16-AR, pCMV-b-gal, and p5XGAL-Luc3 DNAs using lipofectamine 2000 (LifeTech) according to the manufacturer's protocol. Transfections are allowed to proceed for 6 hours and the transfection media is aspirated and replaced with recovery media for 18 hours. Following the recovery period, cells are treated with compound for 24 hours prior to cell harvesting. Cells are washed with PBS and then lysed using the lysis buffer from the Galacto-Light Plus β-galactosidase assay kit (Tropix). Assays for luciferase and β-galactosidase were performed as described by the manufacturer. Peptide/AR interactions are described in terms of the luciferase activity normalized for transfection efficiency using β-galactosidase activity (see FIG. 4A). Two types of useful information arose from these methods: 1) we generated a panel of useful peptide probes to analyze the conformational state of AR, and 2) we “fingerprinted” AR modulators with respect to AR conformation (FIG. 4B). […] FIG. 4B is the converse of 4A. It compares the ability of six ligands (DHT, MPA, CYP, RU486, FLUT and DHEAs to interact with AR in the presence of each of four peptides (D30, 5G11, B8H3 and […]). Thus, it is a “fingerprint” of each of the six ligands using a four peptide panel. (Note that “1269” and D30″ refer to the same peptide.)"}, "androgen receptor [3]": {"target": "T1, androgen receptor", "assay_type": "cell-based", "set-up": "expressed in transfected cells", "remark": "listed apart in the source"}, "ER α [4]": {"target": "T2, ER α (UniProt P03372 1-595, limits assumed)", "T2 construct": "also called estrogen receptor α; ERα-ERE", "T2 sequence (looked up)": "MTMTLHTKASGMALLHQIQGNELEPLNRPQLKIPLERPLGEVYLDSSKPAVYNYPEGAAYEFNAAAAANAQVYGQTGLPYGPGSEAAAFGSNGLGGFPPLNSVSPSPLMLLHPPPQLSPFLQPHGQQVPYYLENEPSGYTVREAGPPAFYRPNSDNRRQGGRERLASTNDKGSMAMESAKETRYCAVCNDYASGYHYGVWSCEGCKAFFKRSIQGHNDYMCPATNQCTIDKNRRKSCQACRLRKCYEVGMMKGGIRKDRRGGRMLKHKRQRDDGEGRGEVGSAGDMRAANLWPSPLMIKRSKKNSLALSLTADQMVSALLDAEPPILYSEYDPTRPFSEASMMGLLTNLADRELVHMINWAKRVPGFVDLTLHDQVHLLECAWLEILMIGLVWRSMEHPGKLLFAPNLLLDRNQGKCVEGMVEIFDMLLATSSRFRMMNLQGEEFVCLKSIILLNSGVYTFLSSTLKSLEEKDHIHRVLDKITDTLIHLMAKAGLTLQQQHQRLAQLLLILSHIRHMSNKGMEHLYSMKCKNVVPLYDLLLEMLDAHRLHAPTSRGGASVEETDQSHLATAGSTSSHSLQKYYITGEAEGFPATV", "test": "phage isolated on ERα-ERE; Raloxifen"}, "ER α [5]": {"target": "T2, ER α", "test": "peptide probe binding to ERα, ICI 182,780"}, "ER β [6]": {"target": "T3, ER β (UniProt Q92731 1-530, limits assumed)", "T3 construct": "In vitro; also called estrogen receptor β; ERβ-ERE", "T3 sequence (Q92731 whole entry)": "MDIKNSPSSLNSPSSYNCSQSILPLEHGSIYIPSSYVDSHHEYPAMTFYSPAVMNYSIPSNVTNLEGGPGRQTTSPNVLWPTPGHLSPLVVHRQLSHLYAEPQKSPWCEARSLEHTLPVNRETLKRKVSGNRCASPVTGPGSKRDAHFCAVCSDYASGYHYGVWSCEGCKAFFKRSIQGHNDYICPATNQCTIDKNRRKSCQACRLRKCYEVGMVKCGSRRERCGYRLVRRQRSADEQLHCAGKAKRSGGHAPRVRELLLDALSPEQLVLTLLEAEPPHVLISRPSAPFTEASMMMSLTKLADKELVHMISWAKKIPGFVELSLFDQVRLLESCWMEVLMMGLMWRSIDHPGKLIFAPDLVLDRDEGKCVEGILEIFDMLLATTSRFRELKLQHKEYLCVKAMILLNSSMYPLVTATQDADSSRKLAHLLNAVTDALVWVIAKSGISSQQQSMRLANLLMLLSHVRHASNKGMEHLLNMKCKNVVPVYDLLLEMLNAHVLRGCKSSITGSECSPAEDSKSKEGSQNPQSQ", "test": "peptide probe binding to ERβ, Clomiphene"}, "ER β [7]": {"target": "T3, ER β", "test": "peptide probe binding to ERβ, Raloxifene"}, "ER β [8]": {"target": "T3, ER β", "test": "peptide probe binding to ERβ, 17β-Estradiol"}, "ER β [9]": {"target": "T3, ER β", "test": "peptide probe binding to ERβ, GW 7604"}, "ER α [10]": {"target": "T2, ER α", "test": "peptide probe binding to ERα, 4-OH Tamoxifen"}, "ER β [11]": {"target": "T3, ER β", "test": "peptide probe binding to ERβ, Estriol"}, "ER α [12]": {"target": "T2, ER α", "test": "peptide probe binding to ERα, Diethylstilbesterol"}, "ER α, P03372": {"target": "T4, ER α, P03372", "T4 chain": "T2 sequence (looked up)", "test": "peptide probe binding to ERα, all modulators"}}}
{"molecule": "EFQQCMCAEVKSWLGGSLDLOPS* [B8E9]", "values": [{"measurement": "Fold induction", "setting": "androgen receptor [1]", "result": 4}, {"measurement": "Yeast Specificity Graph (FIG. 3): CPA", "setting": "androgen receptor [1]; ligand CPA", "result": 0.5635}, {"measurement": "Yeast Specificity Graph (FIG. 3): DHT", "setting": "androgen receptor [1]; ligand DHT", "result": 1.75}, {"measurement": "Yeast Specificity Graph (FIG. 3): RU", "setting": "androgen receptor [1]; ligand RU", "result": 0.8}, {"measurement": "Yeast Specificity Graph (FIG. 3): No Lig", "setting": "androgen receptor [1]; no ligand", "result": 0.4989}, {"measurement": "Mammalian Cell Specificity Graph (FIG. 4): CYP.", "setting": "androgen receptor [2]", "result": 16.02, "unit": "Relative Light Units"}, {"measurement": "Mammalian Cell Specificity Graph (FIG. 4): DHT", "setting": "androgen receptor [2]; ligand DHT", "result": 19.64, "unit": "Relative Light Units"}, {"measurement": "Mammalian Cell Specificity Graph (FIG. 4): MPA", "setting": "androgen receptor [2]; ligand MPA", "result": 18.51, "unit": "Relative Light Units"}, {"measurement": "Mammalian Cell Specificity Graph (FIG. 4): RU486", "setting": "androgen receptor [2]; ligand RU486", "result": 10.1916, "unit": "Relative Light Units"}, {"measurement": "Mammalian Cell Specificity Graph (FIG. 4): no compound", "setting": "androgen receptor [2]; no compound", "result": 0.2091, "unit": "Relative Light Units"}, {"measurement": "Binding to the androgen receptor in the presence of agonists and known antagonists", "setting": "androgen receptor [3]; ligand present (agonists, known antagonists)", "result": "displays binding"}, {"measurement": "Binding to the androgen receptor in the absence of ligand", "setting": "androgen receptor [3]; no ligand", "result": "not in the absence of ligand"}]}
{"molecule": "SRLCFGDWCMLGGVDVLSR", "note": "[1R]", "values": [{"measurement": "binding result", "setting": "ER α [4]", "result": "binds"}]}
{"molecule": "SSWDMHQFFWEGVSR (also called AB3)", "note": "[α/β III]", "values": [{"measurement": "Equiv.", "setting": "ER α [5]", "result": -100, "unit": "%"}, {"measurement": "Equiv.", "setting": "ER β [6]", "result": 34, "unit": "%"}, {"measurement": "Equiv.", "setting": "ER β [7]", "result": 77, "unit": "%"}, {"measurement": "Equiv.", "setting": "ER β [8]", "result": -71, "unit": "%"}, {"measurement": "Equiv.", "setting": "ER β [9]", "result": -86, "unit": "%"}, {"measurement": "Equiv.", "setting": "ER α [10]", "result": 100, "unit": "%"}, {"measurement": "Equiv.", "setting": "ER β [11]", "result": -57, "unit": "%"}, {"measurement": "Equiv.", "setting": "ER α [12]", "result": -53, "unit": "%"}]}
{"molecule": "SSLNMVVDTPWCGKWVCSR", "note": "[2R]", "values": [{"measurement": "binding result", "setting": "ER α [4]", "result": "binds"}]}
{"molecule": "SRTWESPLGTWEWSR (modifications not checked)", "note": "[#13 ER]", "values": [{"measurement": "Equiv.", "setting": "ER α, P03372", "result": 0, "unit": "%"}]}
